Results: ChEMBL document CHEMBL1137798, “Evaluation of natural products as inhibitors of human immunodeficiency virus type 1 (HIV-1) reverse transcriptase” (J Nat Prod, 1991)
Where a name gives a salt, the structure may show the parent alone.

target: Human immunodeficiency virus type 1 reverse transcriptase (Human immunodeficiency virus 1, UniProt Q72547); settings: read-out: IC50 (converted)

Compound	IC50
COc1cc2c3cc1Oc1cc(ccc1O)C[C@@H]1c4c(cc(OC)c(O)c4Oc4ccc(cc4)C[C@@H]3N(C)CC2)CC[N+]1(C)C	> 310 µM
COc1ccc2[nH]c3c(C)c4ccncc4c(C)c3c2c1	< 543 µM
COc1coc(CO)cc1=O	> 1280 µM
C[C@H](O)C1=C[C@@]2(C=C[C@@H]3C(C(=O)O)=CO[C@@H](O[C@@H]4O[C@H](CO)[C@@H](O)[C@H](O)[C@H]4O)[C@@H]32)OC1=O	> 438 µM
C/C=C1/CN(C(C)=O)[C@H]2Cc3c([nH]c4ccccc34)C(=O)C[C@@H]1[C@@H]2C(=O)OC	> 526 µM
COc1ccc2c(c1OC)-c1cc(ccc1O)/C=C\C(=O)O[C@H]1C[C@@H]3CCCCN3[C@H]2C1	> 460 µM
COc1c(O)cc(O)c2c(=O)c(O)c(-c3ccccc3)oc12	> 734 µM
COC(=O)C1=CO[C@@H](O[C@@H]2O[C@H](CO)[C@@H](O)[C@H](O)[C@H]2O)[C@H]2[C@@H]1C=C[C@@]21C=C([C@H](C)OC(=O)/C=C/c2ccc(O)cc2)C(=O)O1	> 324 µM
CC1=C(C)C(=O)O[C@@H]([C@](C)(O)[C@]2(O)CC[C@@]3(O)[C@@H]4C[C@H]5O[C@]56[C@@H](O)C=CC(=O)[C@]6(C)[C@H]4CC[C@]23C)C1	> 398 µM
COc1c2occc2c(CC(O)C(C)(C)O)c2ccc(=O)oc12 (centres undefined)	> 628 µM
CC[C@H]1CN2CCc3cc(OC)c(OC)cc3[C@@H]2C[C@@H]1C[C@H]1NCCc2cc(OC)c(OC)cc21	> 387 µM
CC[C@@]12CCCN3CC[C@@]4(C(=Nc5c(OC)cccc54)CC1)[C@H]32	> 644 µM
COc1cc2c(cc1OC)N1C(=O)C[C@]34C=CCN5CC[C@@H]2[C@@H](CC3)C514	> 567 µM
CC[C@H]1CN2CCc3cc(OC)c(OC)cc3[C@@H]2C[C@@H]1CC1=NCCc2cc(OC)c(OC)cc21	17.3 µM
COc1c2c(c(O)c3ccoc13)C(=O)[C@H]1c3cc4c(cc3OC[C@H]1O2)OCO4	> 523 µM
COc1cc2c(OC)c3ccoc3nc2cc1O	> 816 µM
COc1c2ccoc2nc2c(OC(C)=O)cccc12 [ACETYLROBUSRINE]	> 777 µM
COc1cc2c(c3c1c(=O)c1ccccc1n3C)C=CC(C)(C)O2 [ACRONINE]	> 622 µM
COc1cc2c(c3c1/c(=N\N=c1/c4ccccc4n(C)c4c5c(cc(OC)c14)OC(C)(C)C=C5)c1ccccc1n3C)C=CC(C)(C)O2 [ACRONYCINE AZINE]	> 313 µM
CC[C@H]1[C@@H]2C[C@H]3[C@@H]4N(C)c5ccccc5[C@]45C[C@@H]([C@@H]2[C@H]5O)N3[C@@H]1O [AJMALINE]	> 613 µM
COC(=O)C1=CO[C@@H](C)[C@@H]2Cn3ccc4c5ccccc5nc-4c3C[C@H]12 [ALSTONINE HYDROCHLORIDE]	< 390 µM
C[C@]12CCC(=O)C=C1CC[C@@H]1[C@@H]2CC[C@]2(C)C(=O)CC[C@@H]12 [ANDROSTENEDIONE]	> 698 µM
COC(=O)C1=CCCN(C)C1 [ARECOLINE HYDROBROMIDE]	> 847 µM

Compound	IC50
COC(=O)C1=CO[C@@H](C)[C@@H]2CN3CCc4c([nH]c5ccc(OC)cc45)[C@@H]3C[C@H]12 [ARICINE]	> 523 µM
CC(=O)N[C@H]1[C@H](O[C@H]2CC[C@]3(C)[C@H]4CC=C5[C@H]6CC(C)(C)CC[C@]6(C(=O)O)CC[C@@]5(C)[C@]4(C)CC[C@H]3C2(C)C)O[C@H](CO)[C@@H](O)[C@@H]1O [ARIDANIN]	> 303 µM
CC[C@@]12CCCN3CC[C@]4(c5cccc(OC)c5N(C(C)=O)[C@@H]4CC1)[C@H]32 [ASPIDOSPERMINE]	> 564 µM
COc1ccc2cc3[n+](cc2c1OC)CCc1cc2c(cc1-3)OCO2 [BERBERINE CHLORIDE]	269 µM
C=C(C)[C@@H]1CC[C@]2(CO)CC[C@]3(C)[C@H](CC[C@@H]4[C@@]5(C)CC[C@H](O)C(C)(C)[C@@H]5CC[C@]43C)[C@@H]12 [BETULIN]	> 452 µM
COc1cc2c(cc1O)C[C@H]1c3c(cc(O)c(OC)c3-2)CCN1C [BOLDINE]	> 611 µM
COC(=O)[C@@]12OC[C@]34[C@H]([C@@H](O)[C@@H]1O)[C@@]1(C)CC(=O)C(O)=C(C)[C@@H]1C[C@H]3OC(=O)[C@H](OC(=O)/C=C(\C)C(C)C)[C@@H]24 [BRUCEANTIN]	> 365 µM
COc1cc2c(cc1OC)[C@@]13CCN4CC5=CCO[C@H]6CC(=O)N2[C@H]1[C@H]6[C@H]5C[C@H]43 [BRUCINE]	> 507 µM
CC[C@@]1(O)C(=O)OCc2c1cc1n(c2=O)Cc2cc3ccccc3nc2-1 [CAMPTOTHECIN]	> 574 µM
COc1ccc2c(c1OC)C[N+]1(C)CCc3cc4c(cc3C1C2)OCO4 (centres undefined) [CANADINE METHCHLORIDE]	> 513 µM
C[C@H]1/C(=C/C(=O)OCCN(C)C)CC[C@H]2[C@H]1C(=O)C[C@H]1C(C)(C)[C@@H](OS(=O)(=O)O)CC[C@]21C [CASSAINE SULFATE]	> 412 µM
CCC1=C[C@@H]2CN3CCc4c([nH]c5ccccc45)[C@](C(=O)OC)(C2)[C@@H]13 [CATHARANTHINE HYDROCHLORIDE]	> 536 µM
COc1ccc2c(c[n+](C)c3c4cc5c(cc4ccc23)OCO5)c1OC [CHELERYTHRINE CHLORIDE]	< 521 µM
CN1Cc2c(ccc3c2OCO3)[C@@H]2[C@H]1c1cc3c(cc1C[C@@H]2O)OCO3 [CHELIDONINE]	< 566 µM
C=C[C@H]1C[N@@]2CC[C@H]1C[C@@H]2[C@@H](O)c1ccnc2ccccc12 [CINCHONINE]	> 679 µM
COc1cc2c(c(OC)c1OC)-c1ccc(OC)c(=O)cc1[C@@H](NC(C)=O)CC2 [COLCHICINE]	> 501 µM
COc1cc2c(cc1O)-c1cc3ccc(OC)c(OC)c3c[n+]1CC2 [COLUMBAMINE IODIDE]	125 µM
CC[C@]12CCc3[nH]c4ccccc4c3CCN(C[C@H]3O[C@H]31)C2 [CONOFLORINE]	> 675 µM
CC[C@H]1C[C@@H]2CN3CCc4c([nH]c5cc(OC)c(OC)cc45)[C@](C(=O)OC)(C2)[C@H]13 [CONOPHARYNGINE]	> 502 µM
CC[C@@H]1CN2CCc3c([nH]c4ccccc34)[C@@H]2C[C@@H]1/C(=C\OC)C(=O)OC [CORYNANRHEIDINE]	> 543 µM
COC(=O)[C@H]1[C@H]2C[C@H]3c4[nH]c5ccccc5c4CCN3C[C@@H]2CC[C@@H]1O [CORYNANTHEINE]	> 564 µM
COc1cccc2c1C(=O)c1c(O)c3c(c(O)c1C2=O)C[C@@](O)(C(C)=O)C[C@@H]3O[C@H]1C[C@H](N)[C@H](O)[C@H](C)O1 [DAUNORUBICIN]	237 µM
COC(=O)[C@@H]1[C@@H](OC)[C@H](OC(=O)c2cc(OC)c(OC)c(OC)c2)C=C2CN3CCc4c([nH]c5ccccc45)[C@@H]3C[C@@H]21 [DESERPIDEINE HYDROCHLORIDE]	> 326 µM

Compound	IC50
COC(=O)[C@H]1[C@H]2C[C@@H]3c4[nH]c5ccccc5c4CCN3C[C@H]2C[C@@H](OC(=O)c2cc(OC)c(OC)c(OC)c2)[C@@H]1OC [DESERPIDINE]	> 346 µM
COc1cc2c(c3c1c(=O)c1ccccc1n3C)CCC(C)(C)O2 [DIHYDROACRONYCINE]	> 618 µM
COc1ccc2c(c1OC)CN1CCc3cc4c(cc3C1=C2)OCO4 [DIHYDROBERBERINE]	> 593 µM
O=c1oc2c(O)c(O)cc3c(=O)oc4c(O)c(O)cc1c4c23 [ELLAGIC ACID]	< 496 µM
Cc1c2ccncc2c(C)c2c1[nH]c1ccccc12 [ELLIPTECINE]	< 609 µM
CN[C@@H](C)[C@H](O)c1ccccc1 [EPHEDRINE SULFATE]	> 933 µM
O=c1ccc2cc(O[C@@H]3O[C@H](CO)[C@@H](O)[C@H](O)[C@H]3O)c(O)cc2o1 [ESCULIN]	> 588 µM
C/C=C/C=C1\C=Cc2c(C(=O)OC)coc(=O)c21 [FULVOPLUMIERIN]	184 µM
COc1cc(O)c2c(=O)cc(-c3ccc(O)cc3)oc2c1 [GENKWANIN]	> 704 µM
CC(C)=CCC[C@](C)(O[C@@H]1O[C@H](CO[C@@H]2O[C@H](CO)[C@@H](O)[C@H](O)[C@H]2O)[C@@H](O)[C@H](O)[C@H]1O)[C@H]1CC[C@]2(C)[C@@H]1[C@H](O)C[C@@H]1[C@@]3(C)CC[C@H](O[C@@H]4O[C@H](CO)[C@@H](O)[C@H](O)[C@H]4O[C@@H]4O[C@H](CO)[C@@H](O)[C@H](O)[C@H]4O)C(C)(C)[C@@H]3CC[C@]12C [GINSENOSIDE RB1]	> 180 µM
CC(C)=CCC[C@](C)(O[C@@H]1O[C@H](CO)[C@@H](O)[C@H](O)[C@H]1O)[C@H]1CC[C@]2(C)[C@@H]1[C@H](O)C[C@@H]1[C@@]3(C)CC[C@H](O)C(C)(C)[C@@H]3[C@@H](O[C@@H]3O[C@H](CO)[C@@H](O)[C@H](O)[C@H]3O[C@@H]3O[C@@H](C)[C@H](O)[C@@H](O)[C@H]3O)C[C@]12C [GINSENOSIDE RE]	> 211 µM
COC(=O)C[C@](O)(CCC(C)(C)O)C(=O)O[C@@H]1C(OC)=C[C@]23CCCN2CCc2cc4c(cc2[C@H]13)OCO4 [HARRINGTONINE]	> 376 µM
COc1ccc2cc1Oc1ccc(cc1)C[C@H]1c3cc(c(OC)cc3CCN1C)Oc1c(OC)c(OC)c(OC)c3c1[C@H](C2)N(C)CC3 [HERNANDEZINE]	> 306 µM
COc1ccc2c(c1OC)C(=O)O[C@@H]2[C@H]1c2cc3c(cc2CCN1C)OCO3 [HYDRASTINE]	> 522 µM
CC(C)[C@](O)(C(=O)OCC1=CC[N+]2([O-])CC[C@@H](O)[C@@H]12)[C@H](C)O (some centres undefined) [INDICINE N-OXIDE]	> 634 µM
Cn1cncc1C[C@H]1COC(=O)[C@@H]1[C@@H](O)c1ccccc1 [ISOPILOSINE]	> 698 µM
COC(=O)[C@H]1[C@H]2C[C@@H]3c4[nH]c5ccccc5c4CCN3C[C@H]2C[C@@H](O)[C@@H]1OC(=O)c1cc(OC)c(OC)c(OC)c1 [ISORAUNESCINE]	> 354 µM
COC(=O)CC1(O)C=CC(=O)C=C1 [JACARANONE]	> 1100 µM
COc1cc2c(cc1O)CC[n+]1cc3c(OC)c(OC)ccc3cc1-2 [JATRORRHIZINE CHLORIDE]	190 µM
O=c1c(O)c(-c2ccc(O)cc2)oc2cc(O)cc(O)c12 [KAEMPFEROL]	< 524 µM
COc1c2occc2c(OC)c2c(=O)cc(C)oc12 [KHELLIN]	> 769 µM
C/C=C(/C)C(=O)O[C@H]1CCN2CC=C(COC(=O)[C@](O)([C@H](C)OC)C(C)(C)O)[C@H]12 [LASIOCARPINE]	> 486 µM
O=C1CCC[C@H]2[C@@H]3CCCN4CCC[C@H](CN12)[C@@H]34 [LEONTINE]	> 805 µM
